In patent US7105562B2, “Geometrically restricted 3-cyclopentylidene-1,3-dihydroindol-2-ones as potent protein tyrosine kinase inhibitors” (Sugen, Inc., priority 2003, dated 2006) one finds IC50 data, which are given here for 23 molecules.

Each structure is given as a SMILES string. pIC50: −log10 of the molar value. A value given as a limit tells only on which side of the number the result lay.

FGFR1, sequence (P11362 22-822, species assumed): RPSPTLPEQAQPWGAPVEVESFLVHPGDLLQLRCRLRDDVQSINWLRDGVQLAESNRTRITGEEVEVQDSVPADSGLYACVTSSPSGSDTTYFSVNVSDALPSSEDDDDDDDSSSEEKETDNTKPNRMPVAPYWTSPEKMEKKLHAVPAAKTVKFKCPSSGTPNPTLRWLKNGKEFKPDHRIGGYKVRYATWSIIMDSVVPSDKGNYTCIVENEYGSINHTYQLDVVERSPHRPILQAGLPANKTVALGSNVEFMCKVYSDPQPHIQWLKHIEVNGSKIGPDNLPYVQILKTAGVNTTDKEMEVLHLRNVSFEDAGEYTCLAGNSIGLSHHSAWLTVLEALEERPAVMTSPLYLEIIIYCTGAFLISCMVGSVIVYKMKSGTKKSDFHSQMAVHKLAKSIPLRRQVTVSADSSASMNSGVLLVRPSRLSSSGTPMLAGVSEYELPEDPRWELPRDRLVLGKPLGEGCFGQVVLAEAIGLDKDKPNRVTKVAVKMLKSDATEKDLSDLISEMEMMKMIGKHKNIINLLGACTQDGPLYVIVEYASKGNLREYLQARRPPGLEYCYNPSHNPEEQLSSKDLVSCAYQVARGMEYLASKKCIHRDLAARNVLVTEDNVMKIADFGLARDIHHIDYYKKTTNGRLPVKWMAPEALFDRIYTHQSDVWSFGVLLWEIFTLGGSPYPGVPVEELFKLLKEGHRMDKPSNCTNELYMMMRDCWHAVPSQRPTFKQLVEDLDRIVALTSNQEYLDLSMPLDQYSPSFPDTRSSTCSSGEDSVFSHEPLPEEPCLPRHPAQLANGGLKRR

This experiment concerns the target FGFR1 (Homo sapiens, UniProt P11362). The experiment is described as follows: FGFR1 Bioassay (in vitro kinase activity, ELISA). The experiment is classed as biochemical. Particulars: purified GST-FGFR1, poly(Glu-Tyr) substrate, read-out: FGFR IC50. The method, then:
This assay is used to measure the in vitro kinase activity of FGF1-R in an ELISA assay.
1. Costar 96-well ELISA plates (Corning Catalog # 3369).
2. Poly(Glu-Tyr) (Sigma Catalog # P0275).
4. 50 mM Hepes Buffer Solution.
5. Blocking Buffer (5% BSA/PBS).
6. Purified GST-FGFR1 (SUGEN, Inc.)
7. Kinase Dilution Buffer.
Mix 500 μl 1M Hepes (GIBCO), 20 μl 5% BSA/PBS, 10 μl 100 mM sodium orthovanadate and 50 μl 5M NaCl.
9. ATP/MnCl2 phosphorylation mix: mix 20 μL ATP, 400 μL 1 M MnCl2 and 9.56 ml dH2O.
10. NUNC 96-well V bottom polypropylene plates (Applied Scientific Catalog # AS-72092).
Add 500 μL TWEEN to 1 liter TBS.
13. Rabbit polyclonal anti-phosphotyrosine serum (SUGEN, Inc.).
14. Goat anti-rabbit IgG peroxidase conjugate (Biosource, Catalog # ALI0404).
1. Coat Costar 96 well ELISA plates with 1 μg per well Poly(Glu-Tyr) in 100 μl PBS. Store overnight at 4° C.
2. Wash coated plates once with PBS.
3. Add 150 μL of 5% BSA/PBS Blocking Buffer to each well. Incubate, with shaking, for 1 hr at room temperature.
4. Wash plate 2× with PBS, then once with 50 mM Hepes. Pat plates on a paper towel to remove excess liquid and bubbles.
5. Add 25 μL of 0.4 mM test compound in 4% DMSO or 4% DMSO alone (controls) to plate.
6. Dilute purified GST-FGFR1 in Kinase Dilution Buffer (5 ng kinase/50 ul KDB/well).
7. Add 50 μL of diluted kinase to each well.
8. Start kinase reaction by adding 25 μl/well of freshly prepared ATP/Mn++ (0.4 ml 1M MnCl2, 40 μL 10 mM ATP, 9.56 ml dH2O), freshly prepared).
9. Stop reaction with 25 μL of 0.5M EDTA.
10. Wash plate 4× with fresh TBST.
11. Make up Antibody Dilution Buffer: For 50 ml, mix 5 ml of 5% BSA, 250 μl of 5% milk and 50 μl of 100 mM sodium vanadate, bring to final volume with 0.05% TBST.
12. Add 100 μl per well of anti-phosphotyrosine (1:10000 dilution in ADB). Incubate, with shaking for 1 hr. at room temperature.
14. Add 100 μl per well of Biosource Goat anti-rabbit IgG peroxidase conjugate (1:6000 dilution in ADB). Incubate, with shaking for 1 hr. at room temperature.
15. Wash as in step 10 and then with PBS to remove bubbles and excess TWEEN.
16. Add 100 μl of ABTS/H2O2 solution to each well.
17. Incubate, with shaking, for 10 to 20 minutes. Remove any bubbles.
18. Read assay on Dynatech MR7000 ELISA reader: test filter at 410 nM, reference filter at 630 nM.
In general terms: In an ELISA, binding on a coated surface is turned into a signal by an enzyme label.
For the molecule `CNS(=O)(=O)c1ccc2c(c1)/C(=C1\CCc3c1[nH]c(C)c3C(=O)N1CCCC1CN1CCCC1)C(=O)N2` (stereo in doubt) [Example 13, 3-[2-Methyl-3-((R)-2-pyrrolidin-1-ylmethyl-pyrrolidine-1-carbonyl)-4,5-dihydro-1H-cyclopenta[b]pyrrol-(6Z)-ylidene]-2-oxo-2,3-dihydro-1H-indole-5-sulfonic acid methylamide], the pIC50 (in general, −log10 of the IC50, conventionally taken in molar units) is 7.82.

With `CCOC(=O)c1c(C)[nH]c2c1CC/C2=C1/C(=O)Nc2ccccc21` [Example 1, 2-Methyl-6-[2-oxo-1,2-dihydro-indol-(3Z)-ylidene]-1,4,5,6-tetrahydro-cyclopenta[b]pyrrole-3-carboxylic acid ethyl ester], the pIC50 was 7.10. Under `CCOC(=O)c1c(C)[nH]c2c1CC/C2=C1/C(=O)Nc2ccc(S(=O)(=O)Cc3c(Cl)cccc3Cl)cc21` [Example 2, 6-[5-(2,6-Dichloro-phenylmethanesulfonyl)-2-oxo-1,2-dihydro-indol-(3Z)-ylidene]-2-methyl-1,4,5,6-tetrahydro-cyclopenta[b]pyrrole-3-carboxylic acid ethyl ester] stands 5.60. As for `CCOC(=O)c1c(C)[nH]c2c1CC/C2=C1/C(=O)Nc2ccc(S(=O)(=O)NC)cc21` [Example 3, 2-Methyl-6-[5-methylsulfamoyl-2-oxo-1,2-dihydro-indol-(3Z)-ylidene]-1,4,5,6-tetrahydro-cyclopenta[b]pyrrole-3-carboxylic acid ethyl ester], the figure is 6.22; as for `CNS(=O)(=O)c1ccc2c(c1)/C(=C1\CCc3cc(C)[nH]c31)C(=O)N2` [Example 4, 3-[2-Methyl-4,5-dihydro-1H-cyclopenta[b]pyrrol-(6Z)-ylidene]-2-oxo-2,3-dihydro-1H-indole-5-sulfonic acid methylamide], 7.60. As for `CNS(=O)(=O)c1ccc2c(c1)/C(=C1\CCc3c1[nH]c(C)c3C(=O)O)C(=O)N2` [Example 5, 2-Methyl-6-[5-methylsulfamoyl-2-oxo-1,2-dihydro-indol-(3Z)-ylidene]-1,4,5,6-tetrahydro-cyclopenta[b]pyrrole-3-carboxylic acid], the figure is 7.66; as for `CCOC(=O)c1c(C)[nH]c2c1CC/C2=C1/C(=O)Nc2ccc(S(C)(=O)=O)cc21` [Example 6, 6-[5-Methanesulfonyl-2-oxo-1,2-dihydro-indol-(3Z)-ylidene]-2-methyl-1,4,5,6-tetrahydro-cyclopenta[b]pyrrole-3-carboxylic acid ethyl ester], 4.84. Regarding `CCOC(=O)c1c(C)[nH]c2c1CC/C2=C1/C(=O)Nc2ccc(S(=O)(=O)N(C)C)cc21` [Example 7, 6-[5-Dimethylsulfamoyl-2-oxo-1,2-dihydro-indol-(3Z)-ylidene]-2-methyl-1,4,5,6-tetrahydro-cyclopenta[b]pyrrole-3-carboxylic acid ethyl ester], the pIC50 was less than 4.70. As for `CCOC(=O)c1c(C)[nH]c2c1CC/C2=C1/C(=O)Nc2ccc(S(=O)(=O)NC(C)C)cc21` [Example 8, 6-[5-Isopropylsulfamoyl-2-oxo-1,2-dihydro-indol-(3Z)-ylidene]-2-methyl-1,4,5,6-tetrahydro-cyclopenta[b] pyrrole-3-carboxylic acid ethyl ester], the figure is less than 4.70. Under `CCOC(=O)c1c(C)[nH]c2c1CC/C2=C1/C(=O)Nc2ccc(S(=O)(=O)CC)cc21` [Example 9, 6-[5-Ethanesulfonyl-2-oxo-1,2-dihydro-indol-(3Z)-ylidene]-2-methyl-1,4,5,6-tetrahydro-cyclopenta[b]pyrrole-3-carboxylic acid ethyl ester] stands 6.28; under `CNS(=O)(=O)c1ccc2c(c1)/C(=C1\CCc3c1[nH]c(C)c3C(=O)NCC(O)CN1CCCC1)C(=O)N2` (centres unmarked) [Example 10, 2-Methyl-6-[5-methylsulfamoyl-2-oxo-1,2-dihydro-indol-(3Z)-ylidene]-1,4,5,6-tetrahydro-cyclopenta[b]pyrrole-3-carboxylic acid (2-hydroxy-3-pyrrolidin-1-yl-propyl)-amide], more than 7.74. As for `CNS(=O)(=O)c1ccc2c(c1)/C(=C1\CCc3c1[nH]c(C)c3C(=O)NCC(O)CNC1CC1)C(=O)N2` (centres unmarked) [Example 11, 2-Methyl-6-[5-methylsulfamoyl-2-oxo-1,2-dihydro-indol-(3Z)-ylidene]-1,4,5,6-tetrahydro-cyclopenta[b]pyrrole-3-carboxylic acid (3-cyclopropylamino-2-hydroxy-propyl)-amide], the figure is 7.70. Regarding `CNS(=O)(=O)c1ccc2c(c1)/C(=C1\CCc3c1[nH]c(C)c3C(=O)NCCN(C)C)C(=O)N2` [Example 12, 2-Methyl-6-[5-methylsulfamoyl-2-oxo-1,2-dihydro-indol-(3Z)-ylidene]-1,4,5,6-tetrahydro-cyclopenta[b]pyrrole-3-carboxylic acid (2-dimethylamino-ethyl)-amide], the pIC50 was 7.77. As for `CCOC(=O)c1c(C)[nH]c2c1CC/C2=C1/C(=O)Nc2ccc(S(N)(=O)=O)cc21` [Example 14, 2-Methyl-6-[2-oxo-5-sulfamoyl-1,2-dihydro-indol-(3Z)-ylidene]-1,4,5,6-tetrahydro-cyclopenta[b]pyrrole-3-carboxylic acid ethyl ester], the figure is 7.00; as for `CNS(=O)(=O)c1ccc2c(c1)C(=C1CCCC1)C(=O)N2` [Example 15, 3-Cyclopentylidene-2-oxo-2,3-dihydro-1H-indole-5-sulfonic acid methylamide], less than 4.70; as for `CNS(=O)(=O)c1ccc2c(c1)/C(=C1\CCc3c1[nH]c(C)c3S(C)(=O)=O)C(=O)N2` [Example 16, 3-[3-Methanesulfonyl-2-methyl-4,5-dihydro-1H-cyclopenta[b]pyrrol-(6Z)-ylidene]-2-oxo-2,3-dihydro-1H-indole-5-sulfonic acid methylamide], 7.82. Under `CNS(=O)(=O)c1ccc2c(c1)/C(=C1\CC(CC(=O)O)c3cc(OC)ccc31)C(=O)N2` (centres unmarked) [Example 17, {6-Methoxy-3-[5-methylsulfamoyl-2-oxo-1,2-dihydro-indol-(3Z)-ylidene]-indan-1-yl}-acetic acid] stands 7.40. As for `Cc1[nH]c2c(c1C(=O)N1CCC[C@H]1CN1CCCC1)CC/C2=C1/C(=O)Nc2ccc(F)cc21` [Example 18, 5-Fluoro-3-[2-methyl-3-((S)-2-pyrrolidin-1-ylmethyl-pyrrolidine-1-carbonyl)-4,5-dihydro-1H-cyclopenta[b]pyrrol-(6Z)-ylidene]-1,3-dihydro-indol-2-one], the figure is 7.10; as for `COc1ccc2c(c1)NC(=O)/C2=C1/CCc2c1[nH]c(C)c2C(=O)N1CCC[C@H]1CN1CCCC1` [Example 19, 6-Methoxy-3-[2-methyl-3-((S)-2-pyrrolidin-1-ylmethyl-pyrrolidine-1-carbonyl)-4,5-dihydro-1H-cyclopenta[b]pyrrol-(6Z)-ylidene]-1,3-dihydro-indol-2-one], 6.68. Turning to `COc1ccccc1-c1ccc2c(c1)NC(=O)/C2=C1/CCc2c1[nH]c(C)c2C(=O)N1CCC[C@H]1CN1CCCC1` [Example 20], the pIC50 is 6.32.

Regarding `Cc1[nH]c2c(c1C(=O)N1CCC[C@H]1CN1CCCC1)CC/C2=C1/C(=O)Nc2c(Cl)cccc21` [Example 21, 7-Chloro-3-[2-methyl-3-((S)-2-pyrrolidin-1-ylmethyl-pyrrolidine-1-carbonyl)-4,5-dihydro-1H-cyclopenta[b]pyrrol-(6Z)-ylidene]-1,3-dihydro-indol-2-one], the pIC50 is 5.72. Under `Cc1[nH]c2c(c1C(=O)N1CCC[C@H]1CN1CCCC1)CC/C2=C1/C(=O)Nc2ncccc21` [Example 22, 3-[2-Methyl-3-((S)-2-pyrrolidin-1-ylmethyl-pyrrolidine-1-carbonyl)-4,5-dihydro-1H-cyclopenta[b]pyrrol-(6Z)-ylidene]-1,3-dihydro-pyrrolo[2,3-b]pyridin-2-one] stands 5.68. Under `COc1ccc(-c2ccc3c(c2)NC(=O)/C3=C2/CCc3c2[nH]c(C)c3C(=O)N2CCC[C@H]2CN2CCCC2)cc1` [Example 23, 6-(4-Methoxy-phenyl)-3-[2-methyl-3-((S)-2-pyrrolidin-1-ylmethyl-pyrrolidine-1-carbonyl)-4,5-dihydro-1H-cyclopenta[b]pyrrol-(6Z)-ylidene]-1,3-dihydro-indol-2-one] stands 6.64.
